Experimental data taken from ChEMBL document CHEMBL4334553, “Discovery of Hydroxyamidine Based Inhibitors of IDO1 for Cancer Immunotherapy with Reduced Potential for Glucuronidation” (ACS Med Chem Lett, 2020).

Assays:
[1] = target: T1, Indoleamine 2,3-dioxygenase 1 (Homo sapiens, UniProt P14902); experiment: Inhibition of human N-terminal GST-tagged IDO1 expressed in Escherichia coli Rosetta(DE3) pLysS using L-tryptophan as substrate measured after 1 hr by fluorescence assay
[2] = target: T1, Indoleamine 2,3-dioxygenase 1; experiment: Inhibition of IDO1 in interferon-gamma-induced human SKOV3 cells assessed as N-formylkynurenine formation using L-tryptophan as substrate measured after 24 hrs by fluorescence assay
[3] = Half life in human liver microsomes; format: ADME, Microsome
[4] = Half life in mouse liver microsomes; format: ADME, Microsome
UGT1A9 = target: T2, UGT1A9 (Homo sapiens, UniProt O60656); experiment: Stability assessed as recombinant UGT1A9 (unknown origin) mediated compound glucuronidation by measuring half-life at 1 uM incubated in water bath by shaking at 37 degree C measured upto 60 mins in presence of UDPGA by LC-MS/MS analysis; format: ADME
T2 sequence (O60656 whole entry): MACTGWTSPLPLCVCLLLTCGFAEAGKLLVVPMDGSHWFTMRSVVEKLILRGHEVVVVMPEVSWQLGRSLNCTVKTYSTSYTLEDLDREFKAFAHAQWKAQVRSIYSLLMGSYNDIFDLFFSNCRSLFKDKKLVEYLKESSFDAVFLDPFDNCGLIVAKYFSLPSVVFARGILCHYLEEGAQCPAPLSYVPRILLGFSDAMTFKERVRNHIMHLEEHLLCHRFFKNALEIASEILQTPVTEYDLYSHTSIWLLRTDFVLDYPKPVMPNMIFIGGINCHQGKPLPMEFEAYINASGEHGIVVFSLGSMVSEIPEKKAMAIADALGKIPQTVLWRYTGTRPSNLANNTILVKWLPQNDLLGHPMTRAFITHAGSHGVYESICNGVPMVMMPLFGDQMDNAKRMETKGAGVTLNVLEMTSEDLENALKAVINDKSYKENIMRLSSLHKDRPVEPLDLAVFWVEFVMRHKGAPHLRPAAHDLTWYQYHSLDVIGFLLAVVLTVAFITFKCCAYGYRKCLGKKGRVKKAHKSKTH

[5] = AUC(0 to 12 hrs) at steady state in human assessed as ratio of glucuronide to compound at 50 mg, bid measured after 10 days; format: ADME; settings: in vivo

T1 sequence (P14902 whole entry): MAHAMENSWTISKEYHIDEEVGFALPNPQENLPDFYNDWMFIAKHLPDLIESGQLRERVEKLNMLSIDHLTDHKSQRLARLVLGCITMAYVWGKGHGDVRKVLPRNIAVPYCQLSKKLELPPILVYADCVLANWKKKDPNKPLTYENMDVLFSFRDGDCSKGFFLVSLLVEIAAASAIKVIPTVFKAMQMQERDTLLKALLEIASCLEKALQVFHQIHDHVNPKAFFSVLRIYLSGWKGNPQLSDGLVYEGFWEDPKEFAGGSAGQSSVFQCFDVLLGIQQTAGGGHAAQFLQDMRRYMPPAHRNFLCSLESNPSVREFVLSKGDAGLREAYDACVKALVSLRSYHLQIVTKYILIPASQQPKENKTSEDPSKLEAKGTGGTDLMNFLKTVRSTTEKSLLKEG

CS(=O)(=O)CCC(=O)NCCSc1nonc1/C(=N/O)Nc1ccc(F)c(Br)c1
IC50 [1]: 140 nM | IC50 [2]: 7.6 nM | half-life [3]: 2.43 h | half-life [4]: 1.66 h | half-life at 1 µM (UGT1A9): 0.858 h

O=C(NCCSc1nonc1/C(=N/O)Nc1ccc(F)c(C(F)F)c1)C1CS(=O)(=O)C1
IC50 [1]: 70 nM | IC50 [2]: 13 nM | half-life [3]: 1.28 h | half-life [4]: 0.245 h | half-life at 1 µM (UGT1A9): > 3 h

NS(=O)(=O)CC(=O)NCCSc1nonc1/C(=N/O)Nc1ccc(F)c(Br)c1
IC50 [1]: 71 nM | IC50 [2]: 12 nM | half-life [3]: 2.37 h | half-life [4]: 1.12 h | half-life at 1 µM (UGT1A9): 0.758 h

N#Cc1cccc(N/C(=N\O)c2nonc2SCCNC(=O)CS(N)(=O)=O)c1
IC50 [1]: 240 nM | IC50 [2]: 44 nM | half-life [3]: > 3 h | half-life [4]: > 3 h | half-life at 1 µM (UGT1A9): > 3 h

NS(=O)(=O)NCCNc1nonc1C(=NO)Nc1ccc(F)c(Br)c1 [EPACADOSTAT]
half-life at 1 µM (UGT1A9): 0.383 h

CC1(C(=O)NCCSc2nonc2/C(=N/O)Nc2ccc(F)c(C(F)F)c2)CCN1 (stereo not given)
IC50 [1]: 360 nM | IC50 [2]: 16 nM | half-life [3]: 1.97 h | half-life [4]: 0.268 h | half-life at 1 µM (UGT1A9): > 3 h

NS(=O)(=O)CC(=O)NCCSc1nonc1/C(=N/O)Nc1cccc(Br)c1
IC50 [1]: 30 nM | IC50 [2]: 8.1 nM | half-life [3]: > 3 h | half-life [4]: 0.918 h | half-life at 1 µM (UGT1A9): 0.955 h

NS(=O)(=O)CC(=O)NCCSc1nonc1/C(=N/O)Nc1ccc(F)c(C(F)F)c1
IC50 [1]: 73 nM | IC50 [2]: 13 nM | half-life [3]: 2.77 h | half-life [4]: 1.07 h | half-life at 1 µM (UGT1A9): > 3 h

NS(=O)(=O)NCCNc1nonc1/C(=N/OC1OC(C(=O)O)C(O)C(O)C1O)Nc1ccc(F)c(Br)c1 (stereo not given)
Ratio [5]: 8.1

NS(=O)(=O)CC(=O)NCCSc1nonc1/C(=N/O)Nc1ccc(F)c(C(F)(F)F)c1
IC50 [1]: 84 nM | IC50 [2]: 13 nM | half-life [3]: 1.88 h | half-life [4]: 0.923 h | half-life at 1 µM (UGT1A9): 1.45 h

CS(=O)(=O)CC(=O)NCCSc1nonc1/C(=N/O)Nc1ccc(F)c(C(F)F)c1
IC50 [1]: 100 nM | IC50 [2]: 14 nM | half-life [3]: 1.27 h | half-life [4]: 0.765 h | half-life at 1 µM (UGT1A9): 1.59 h

CS(=N)(=O)CC(=O)NCCSc1nonc1/C(=N/O)Nc1ccc(F)c(Br)c1 (stereo not given)
IC50 [1]: 61 nM | IC50 [2]: 14 nM | half-life [3]: 2.65 h | half-life [4]: 1.25 h | half-life at 1 µM (UGT1A9): 1.53 h

NS(=O)(=O)NCCSc1nonc1/C(=N/O)Nc1ccc(F)c(Br)c1
IC50 [1]: 130 nM | IC50 [2]: 2.8 nM | half-life at 1 µM (UGT1A9): 0.183 h
